Measured values reported in ChEMBL document CHEMBL4411277, “Structural Revision of Macropodumine A and Structure of 2-Deoxymacropodumine A, Daphniphyllum Alkaloids with 11-Membered Macrolactone Rings” (J Nat Prod, 2019).

Test system: HeLa
Assay: Cytotoxicity against human HeLa cells assessed as reduction in cell viability by MTT assay
Assay type: functional, cell-based

SMILES: C[C@@H]1CN2C[C@H]3CCC(=O)OCC[C@H]4CC5=C(C4=O)[C@@]3(C)[C@H]2C[C@H]1C5=O
- IC50: 3.89 µM
